Reference: patent US7018817B1, “Process for the preparation of compounds with enhanced optical purity” (DSM IP Assets B.V., priority 1998, dated 2006)

System: known peptide deformylases
Test: not given
Settings: Rajagopalan et al., Biochemistry 1997; cited from earlier work

Compound	deformylase activity of known peptide deformylases towards the substrate
CSCC[C@H](NC=O)C(=O)O [N-formylmethionine]	no or little activity

System: L-aminoacylases
Test: not given
Settings: U.S. Pat. No. 4,745,067; cited from earlier work

Compound	activity of L-aminoacylases towards the substrate
CSCC[C@H](NC=O)C(=O)O [N-formyl-L-methionine]	low

Molecular target: T1, PDF(Fe) (peptide deformylase) (Escherichia coli, UniProt P0A6K3)
T1 construct: made in house; host or cells: overproducing E. coli cells
Test: Enantioselective enzymatic deformylation of N-formyl compounds by PDF(Fe), HPLC analysis
Format: biochemical, E. coli
Settings: Method A: 100 mM MOPS/NaOH, 2 M Li2SO4, pH 7.2, 37° C.
Description: PDF(Fe) was isolated from overproducing E. coli cells grown at 30° C. in 1.6 l TB medium for 14–16 h. About 13 g (wet weight) cell paste were suspended in 26 ml buffer (20 mM Hepes/KOH, 100 mM KF, pH 7.7 supplemented with 10 μg/ml catalase from bovine liver (Boehringer Mannheim) and 1 mM AEBSF, disintegrated by sonication (Branson B12, 20 min) at 0° C. and centrifuged at 200.000 g for 1 h. The clear supernatant (1.3 g of protein; according to biurete reaction) was mixed with 1.3 ml 10% (w/v) Polymin G-35 (BASF) adjusted to pH 7.7 and centrifuged at 40.000 g for 10 min. The supernatant was applied to a 20 ml Met-Lys-Sepharose column that had been equilibrated with 20 mM Hepes/KOH, 100 mM KF, 0.2 mM TCEP, pH 7.7. After washing with 120 ml of 20 mM Hepes/KOH, 100 mM KF, 0.2 mM TCEP, pH 7.7, PDF(Fe) was eluted with 150 ml 20 mM Hepes/KOH, 100 mM KCl, 0.2 mM TCEP, pH 7.7. The protein containing fractions were concentrated by ultrafiltration using an Amicon PM10 membrane (yield: 140 mg protein, 1400 U/mg; determined according to Groche et al.). After adjustment of the TCEP concentration to 1 mM and protein concentration to 40 mg/ml, the PDF(Fe) stock solution (40 mg/ml=2 mM) was stored frozen at −60° C. After thawing, the PDF(Fe) stock solution could be used directly in the deformylation experiments described below. If however solutions with lower PDF(Fe) concentrations were required for these deformylation experiments, the PDF stock solution was diluted further in 20 mM Hepes/KOH, pH 7.7, 100 mM KCl, 1 mg/ml bovine serum albumin, 10 μg/ml catalase solution.
In all cases HPLC conditions had to be developed in which the two deformylated isomers were separated from each other and from the formylated isomers. To this end two different techniques were applied that is method 1 and method 2, as described below.
From the quantities of deformylated isomers in the samples after various reaction times, both the initial deformylation rate constant (kf and ks in M^−1s^−1) could be calculated for both enantiomers, as well as the respective ee values. The enantioselectivity of the enzyme (E value) was calculated by taking the ratio of kf/ks and is given for all Examples in table 1, as well as the maximum ee value (eemax) observed during the experiments.
A Crownpak CR(+) column (4×150 mm) was used. Samples (5 μl) withdrawn from the deformylation mixture were mixed with 95 μl aqueous HClO4 (10 mM) to inactivate PDF(Fe). Following a brief centrifugation, 20 μl of the supernatant were applied to the Crownpak CR(+) column. For specific chromatographic conditions and retention times see table 2.
Method 2 (Precolumn derivatization with o-phthaldialdehyde (OPA) and N-acetyl-L-cysteine (NAC). Samples (25 μl) withdrawn from the deformylation mixture were mixed with 25 μl aqueous HClO4 (100 mM) to inactivate PDF(Fe). Following a brief centrifugation, 40 μl of the supernatant were added to 80 μl 1 M aqueous H3BO3/NaOH pH 9.4, subsequently 20 μl OPA reagent (consisting of OPA in H2O/CH3OH 1:1 v/v with a concentration as indicated in table 3) and 20 μl NAC reagent (consisting of NAC in H2O/CH3OH 1:1 v/v with a concentration as indicated in table 3) was added. After the time indicated in table 3 derivatization was terminated by addition of 80 μl (250 mM) aqueous H3PO4, and 20 μl of the solution were instantaneously applied to a Nucleosil 120-5 C18 (250×4 mm) column. Temperature was always ambient and detection was spectrophotometric using a wavelength of 257 nm and/or 340 nm. The used eluent was a mixture of aqueous 0.05 M H3PO4 brought at pH 7.0 with 1 M NaOH, and a percentage of acetonitrile as indicated in table 3. For derivatization of valine aminonitrile borate buffer was adjusted to pH 11 and addition of NAC reagent was done 10 min after OPA reagent had been added. Concentration of H3PO4 used for termination was 500 mM. Derivatization and separation conditions as well as the observed retention times for the deformylated compounds analyzed are compiled in table 3. […]

T1 sequence (P0A6K3 whole entry): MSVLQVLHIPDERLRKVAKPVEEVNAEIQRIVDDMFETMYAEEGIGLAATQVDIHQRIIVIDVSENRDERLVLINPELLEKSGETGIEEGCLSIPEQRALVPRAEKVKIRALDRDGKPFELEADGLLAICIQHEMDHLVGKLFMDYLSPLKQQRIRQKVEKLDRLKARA

Compound	kf (rate of deformylation of the most rapidly deformylated enantiomer)	ks (rate of deformylation of the least rapidly deformylated enantiomer) [M⁻¹ s⁻¹]	E (enantioselectivity, kf/ks)	eemax (maximum ee value observed)
O=CN1CCC[C@H]1C(=O)O [Comparative Experiment B, N-formyl-proline, reference compound]	<0,004 M^−1s^−1	<0.004		
O=CNC(CO)c1ccccc1 (stereo not drawn) [Example 6, N-formyl-phenylglycinol]	6,3 M^−1s^−1	0.34	18,5	93,3%
C[C@@H](CO)NC=O [Example 8, N-formyl-alaninol]	0,22 M^−1s^−1	0.018	12	85,6%
CC(C)C(C#N)NC=O (stereo not drawn) [Example 10, N-formyl-valine aminonitrile]	29,7 M^−1s^−1	0.62	47,9	95,5%
CC(NC=O)c1cccc2ccccc12 (stereo not drawn) [Example 12, N-formyl-1-(1-naphthyl)-ethylamine]	0,45 M^−1s^−1	0.03	15	90%
N-acetyl-phenylglycine amide [Comparative Experiment A, reference compound]	<0,001 M^−1s^−1	<0.001		

Same assay, conditions: Method B: absence of Li2SO4, 100 mM MOPS/NaOH, 250 mM NaCl, 0.1 mg/ml catalase, pH 7.2, 37° C.

Compound	E (enantioselectivity, kf/ks)	eemax (maximum ee value observed)	kf (rate of deformylation of the most rapidly deformylated enantiomer)	ks (rate of deformylation of the least rapidly deformylated enantiomer) [M⁻¹ s⁻¹]
O=CNC(C(=O)O)c1ccccc1 (stereo not drawn) [Example 1, N-formyl-phenylglycine]	2255	99,6%	10,6 M^−1s^−1	0.0047
O=CNC(CC(=O)O)c1ccccc1 (stereo not drawn) [Example 2, N-formyl-3-amino-3-phenyl-propionic acid]	>1775	100%	7,1 M^−1s^−1	<0.004
O=CNC(CO)c1ccccc1 (stereo not drawn) [Example 6, N-formyl-phenylglycinol]	23,8	90,5%	0,69 M^−1s^−1	0.029
COc1cccc(CC(C#N)NC=O)c1 (stereo not drawn) [Example 11, N-formyl-m-methoxy-phenylalanine aminonitrile]	685	99,0%	1370 M⁻¹ s⁻¹	2

Same assay, conditions: Method C: absence of Li2SO4, 100 mM MES/NaOH, pH 6.2, 37° C.

Compound	E (enantioselectivity, kf/ks)	eemax (maximum ee value observed)	kf (rate of deformylation of the most rapidly deformylated enantiomer) [M⁻¹ s⁻¹]	ks (rate of deformylation of the least rapidly deformylated enantiomer) [M⁻¹ s⁻¹]
N#CC(Cc1ccccc1)NC=O (stereo not drawn) [Example 9, N-formyl-phenylalanine aminonitrile]	880	98,8%	880	1
